Patent US20190374509A1, “Methods of Using Metamizole for Treatment of Pyrexia in Equines” (Kindred Biosciences, Inc., priority 2018, published 2019)

System: horses
Assay: Margin of safety study, IV three times daily for 9 days: clinical pathology (serum chemistry, hematology, urinalysis), body weight, physical examination
Format: in vivo
Experimental: A study was conducted to evaluate the margin of safety of metamizole when administered intravenously to horses for 9 days at doses of 0 mg/kg (0×), 30 mg/kg (1×), 60 mg/kg (2×), and 90 mg/kg (3×) of body weight three times daily (TID), every 8 hours±30 min.
This was a prospective, blinded, randomized, placebo-controlled, parallel-group laboratory study in research horses. Thirty-two horses were enrolled in the study (Table 1).
Treatment phase involved administration of the investigational drug or placebo. The investigational drug was a sterile injectable formulation of dipyrone (Zimeta™, Corden Pharma, Caponago, Italy) (500 mg/mL) in 100 mL glass bottles. The placebo was sterile injectable saline (Nova-Tech Inc, Grand Island, NE) (0.9% sodium chloride) in 500 mL plastic bottles labeled for veterinary use. Dipyrone treatment groups were 30 mg/kg (1×), 60 mg/kg (2×), and 90 mg/kg (3×). Placebo treatment group was saline administered at a volume to match the 3× dipyrone group (0×). The dose was calculated based on body weight and administered three times daily for nine consecutive days. Due to the large volume of injection at the higher dose groups, treatment was administered via indwelling intravenous (IV) catheters. Intravenous catheters were placed using standard techniques. Horses were sedated with xylazine (AnaSed® LA, VetOne, MWI, Boise, Id.) and the skin was desensitized with subcutaneous injection of lidocaine (VetOne, MWI, Boise, Id.). Intravenous catheters were replaced at the discretion of the study director and were maintained with heparinized saline flush prior to and following dose administration.
Randomization occurred on Study Day −1. […] .
All statistical analyses were performed using SAS, version 9.4 (SAS Institute, Cary, N.C.). The individual horse was the experimental unit in the statistical analysis. For statistical modeling, all main effects, interaction terms, and pairwise comparisons of the active groups (dipyrone) with the placebo group were assessed at the two-sided 0.10 significance level (unadjusted) with the exception of the three-way interaction, which was assessed at the two-sided 0.05 significance level (unadjusted).
For continuous endpoints with repeated post-treatment measurements (serum chemistry, coagulation, hematology, urinalysis, body weight, body temperature, heart rate and respiratory rate), repeated measurement analysis of covariance (SAS MIXED procedure RMANCOVA) was used to evaluate a model including treatment, time, sex, treatment by sex interaction, treatment by time interaction, and treatment by time by sex three-way interaction as fixed effects. In addition, baseline values were included as a covariate and remained in the model regardless of its significance. Baseline values were defined as the values prior to and nearest to the first dosing.

[1] = 1X, 30 mg/kg IV every 8 hours, Day 4
[2] = 1X, 30 mg/kg IV every 8 hours, Day 8
[3] = 1X, 30 mg/kg IV every 8 hours, Mares
[4] = 2X, 60 mg/kg IV every 8 hours, Day 4
[5] = 2X, 60 mg/kg IV every 8 hours, Day 8
[6] = 2X, 60 mg/kg IV every 8 hours, Mares
[7] = 3X, 90 mg/kg IV every 8 hours, Day 4
[8] = 3X, 90 mg/kg IV every 8 hours, Day 8
[9] = 3X, 90 mg/kg IV every 8 hours, Mares

Cc1c(N(C)CS(=O)(=O)O)c(=O)n(-c2ccccc2)n1C [dipyrone, [(2,3-dihydro-1,5-dimethyl-3-oxo-2-phenyl-1H-pyrazol-4-yl)methylamino] methanesulfonic acid]
Absolute Basophil Count Day 4 Range [1]: 0.00-0.19 cells 10^3/μL
Cholesterol Day 4 Range [1]: 54 to 77 mg/dL
Cholesterol LS Means [1]: 65.352 mg/dL
Creatinine Day 4 Range [1]: 0.9 to 2.0 mg/dL
Mean Corpuscular Hemoglobin Concentration Day 4 Range [1]: 34.9 to 36.1 g/dL
Mean Corpuscular Volume Day 4 Range [1]: 40.8 to 48.7 fL
Mean Corpuscular Volume LS Means [1]: 46.512 fL
Percent Basophil Day 4 Range [1]: 0.0-2.3%
Total Bilirubin Day 4 Range [1]: 0.8 to 3.4 mg/dL
Total Bilirubin LS Means [1]: 2.301 mg/dL
Absolute Basophil Count Day 8 Range [2]: 0.00-0.52 cells 10^3/μL
Cholesterol Day 8 Range [2]: 64 to 87 mg/dL
Creatinine Day 8 Range [2]: 0.6 to 1.6 mg/dL
Creatinine LS Means [2]: 1.118 mg/dL
Mean Corpuscular Hemoglobin Concentration Day 8 Range [2]: 34.1 to 39.4 g/dL
Mean Corpuscular Hemoglobin Concentration LS Means [2]: 35.513 g/dL
Mean Corpuscular Volume Day 8 Range [2]: 40.8 to 49.3 fL
Mean Corpuscular Volume LS Means [2]: 47.000 fL
Percent Basophil Day 8 Range [2]: 0.0-2.6%
Total Bilirubin Day 8 Range [2]: 1.7 to 4.1 mg/dL
Total Bilirubin LS Means [2]: 2.914 mg/dL
Percent Basophil LS Means (1X, 30 mg/kg IV every 8 hours, Geldings): 0.849%
Absolute Basophil Count LS Means [3]: 0.200 cells 10^3/μL
Percent Basophil LS Means [3]: 1.374%
Absolute Basophil Count Day 4 Range [4]: 0.00-0.12 cells 10^3/μL
Cholesterol Day 4 Range [4]: 43 to 74 mg/dL
Cholesterol LS Means [4]: 56.772 mg/dL
Creatinine Day 4 Range [4]: 1.1 to 2.0 mg/dL
Mean Corpuscular Hemoglobin Concentration Day 4 Range [4]: 34.2 to 36.1 g/dL
Mean Corpuscular Volume Day 4 Range [4]: 41.7 to 49.4 fL
Mean Corpuscular Volume LS Means [4]: 46.284 fL
Percent Basophil Day 4 Range [4]: 0.0-1.3%
Total Bilirubin Day 4 Range [4]: 1.6 to 4.0 mg/dL
Total Bilirubin LS Means [4]: 2.745 mg/dL
Absolute Basophil Count Day 8 Range [5]: 0.00-0.21 cells 10^3/μL
Cholesterol Day 8 Range [5]: 52 to 87 mg/dL
Creatinine Day 8 Range [5]: 0.6 to 1.4 mg/dL
Creatinine LS Means [5]: 0.958 mg/dL
Mean Corpuscular Hemoglobin Concentration Day 8 Range [5]: 32.9 to 35.5 g/dL
Mean Corpuscular Hemoglobin Concentration LS Means [5]: 34.080 g/dL
Mean Corpuscular Volume Day 8 Range [5]: 43.2 to 50.8 fL
Mean Corpuscular Volume LS Means [5]: 47.134 fL
Percent Basophil Day 8 Range [5]: 0.0-2.7%
Total Bilirubin Day 8 Range [5]: 1.6 to 6.1 mg/dL
Total Bilirubin LS Means [5]: 4.495 mg/dL
Percent Basophil LS Means (2X, 60 mg/kg IV every 8 hours, Geldings): 0.949%
Absolute Basophil Count LS Means [6]: 0.059 cells 10^3/μL
Percent Basophil LS Means [6]: 0.520%
Absolute Basophil Count Day 4 Range [7]: 0.00-0.39 cells 10^3/μL
Cholesterol Day 4 Range [7]: 43 to 73 mg/dL
Cholesterol LS Means [7]: 54.144 mg/dL
Creatinine Day 4 Range [7]: 1.1 to 2.1 mg/dL
Mean Corpuscular Hemoglobin Concentration Day 4 Range [7]: 34.3 to 36.0 g/dL
Mean Corpuscular Volume Day 4 Range [7]: 43.0 to 50.4 fL
Mean Corpuscular Volume LS Means [7]: 46.560 fL
Percent Basophil Day 4 Range [7]: 0.0-4.0%
Total Bilirubin Day 4 Range [7]: 1.7 to 5.5 mg/dL
Total Bilirubin LS Means [7]: 3.074 mg/dL
Absolute Basophil Count Day 8 Range [8]: 0.00-0.41 cells 10^3/μL
Cholesterol Day 8 Range [8]: 55 to 96 mg/dL
Creatinine Day 8 Range [8]: 0.7 to 1.6 mg/dL
Creatinine LS Means [8]: 1.144 mg/dL
Mean Corpuscular Hemoglobin Concentration Day 8 Range [8]: 33.1 to 34.5 g/dL
Mean Corpuscular Hemoglobin Concentration LS Means [8]: 33.899 g/dL
Mean Corpuscular Volume Day 8 Range [8]: 43.8 to 51.3 fL
Mean Corpuscular Volume LS Means [8]: 47.708 fL
Percent Basophil Day 8 Range [8]: 0.0-2.1%
Total Bilirubin Day 8 Range [8]: 2.8 to 6.2 mg/dL
Total Bilirubin LS Means [8]: 4.579 mg/dL
Percent Basophil LS Means (3X, 90 mg/kg IV every 8 hours, Geldings): 0.924%
Absolute Basophil Count LS Means [9]: 0.188 cells 10^3/μL
Percent Basophil LS Means [9]: 1.731%
Urinalysis, body weights, and physical examination parameters (30, 60, 90 mg/kg IV every 8 hours for 9 days vs placebo): No significant differences
